Assay results published in US20100209536A1, “Methods and Kits for Use in the Treatment and Prevention of Diseases or Conditions of the Immune System or Infectious Diseases” (The Brigham and Women's Hospital, Inc., priority 2006, published 2010).

Assays:
Assay type in all cases: in vivo, human
[1] = tested on: recurrent wheeze in the first 2 yrs; assay: Project Viva antioxidant study: maternal intake and recurrent wheeze in the first 2 yrs; conditions: including supplements
Text: (§1) Study subjects were enrolled in Project Viva, as described above. Recruitment and retention procedures have previously been published (Gillman et al., J. Pediatr. 144:240-245, 2004). We obtained information directly from participants and from medical records as detailed previously (Rifas-Shiman, Paediatr. Perinat. Epidemiol. 20:35-42, 2006). Data collected from interviews and questionnaires included demographics (infant gender, maternal marital status, and race), socioeconomic status (education and household income), and reproductive history (maternal gravidity, pre-pregnancy height and body mass index, and smoking). Questionnaires that inquired about infant health, feeding, and the home environment were administered when the child was 6 months, 1 year, and 2 years of age. Among 2,128 delivered infants in Project Viva, we excluded 228 participants because of missing first and second trimester diet assessment data and an additional 37 participants with a gestation of less than 34 completed weeks.
(§2) We assessed maternal diet using semi-quantitative food-frequency questionnaires (FFQ) validated for use during pregnancy (Fawzi et al., Ann. Epidemiol. 14:754-762, 2004), and used in several of our previous studies of maternal diet and offspring outcomes (Oken et al., Am. J. Epidemiol. 160:774-783, 2004; Huh et al., Int. J. Epidemiol. 34:378-384, 2005; Gillman et al., Circulation 110:1990-1995, 2004). As noted above, the FFQ used at the 1st visit reflected intakes in the 1st trimester; the time referent was “during this pregnancy,” that is from the date of the last menstrual period until the assessment, at an average of about 10 weeks gestation. To assess vitamin and supplement intake during the 1st trimester, we administered a separate interview that queried dose, duration, and brand/type of multivitamin, prescribed prenatal vitamins, and supplements. Also as noted above, the FFQ used at the 2nd visit (26 to 28 weeks of gestation) reflected intakes during the 2nd trimester; the time referent was “during the past 3 months.” The 2nd trimester instrument was the same as that for the 1st trimester except that we assessed use of vitamins/supplements as part of the self-completed FFQ.
(§3) To calculate intake of nutrients, we again used the Harvard nutrient composition database, which contains food composition values from the U.S. Department of Agriculture, supplemented by other data sources (U.S. Department of Agriculture ARS. USDA National Nutrient Database for Standard Reference, Release 14, 5R14; 2001). All nutrients were adjusted for total energy intake using the nutrient residuals method (Willett, Am. J. Clin. Nutr. 45:354-360, 1987). Mean nutrient intakes from the 1st and 2nd trimesters were used as the exposure in the analyses. If a participant only completed one FFQ, then nutrients calculated from that questionnaire were taken as the exposure of interest. One thousand one hundred and thirty-five (88.0%) of the 1,290 participants completed both FFQs, 96 (7.4%) completed the first trimester FFQ only, and 59 (4.6%) completed the second trimester FFQ only.
(§4) We ascertained the wheeze outcomes from questions from the First Year and Second Year Questionnaires: “since your child was born/since your child was […], has he/she ever had wheezing (or whistiling in the chest)?” “Any wheeze” was defined as a positive response to the question at either the first or second year questionnaire. “Recurrent wheeze” was defined as positive responses to the questions in both the first and second year questionnaires. […] “Respiratory infections” was defined as positive responses to one of three questions: “since your child was born/12 months old, have you been told by a health care professional (such as a doctor, physician assistant, or nurse practitioner) that your child has: (a) bronchiolitis; (b) pneumonia; (c) bronchitis, croup, or any other respiratory infection?” on either the first or second year questionnaires. […]

[2] = tested on: any wheeze in the first 2 yrs; assay: Project Viva antioxidant study: maternal intake and any wheeze in the first 2 yrs; conditions: for Any wheeze in the first 2 yrs, Univariate Model OR (95% CI) / Any wheeze in the first 2 yrs, Multivariable Model OR (95% CI): including supplements; for Association of total maternal intake with any wheeze in univariable models: total intakes
Text: as §1, §2, §3, §4

[3] = tested on: respiratory infections in the 2-year old children; assay: Project Viva antioxidant study: maternal intake and respiratory infections in 2-year old children
Text: as §1
We assessed maternal diet using semi-quantitative food-frequency questionnaires (FFQ) validated for use during pregnancy (Fawzi et al., Ann. Epidemiol. 14:754-762, 2004), and used in several of our previous studies of maternal diet and offspring outcomes (Oken et al., Am. J. Epidemiol. 160:774-783, 2004; Huh et al., Int. J. Epidemiol. 34:378-384, 2005; Gillman et al., Circulation 110:1990-1995, 2004). As noted above, the FFQ used at the 1st visit reflected intakes in the 1st trimester; the time referent was “during this pregnancy,” that is from the date of the last menstrual period until the assessment, at an average of about 10 weeks gestation. […] Also as noted above, the FFQ used at the 2nd visit (26 to 28 weeks of gestation) reflected intakes during the 2nd trimester; the time referent was “during the past 3 months.” The 2nd trimester instrument was the same as that for the 1st trimester except that we assessed use of vitamins/supplements as part of the self-completed FFQ. […]

[4] = 2nd vs 1st (lowest) quartile of maternal intake
[5] = 2nd vs 1st (lowest) quartile of maternal intake, n = 1,038
[6] = 3rd vs 1st (lowest) quartile of maternal intake
[7] = 4th (highest) vs 1st (lowest) quartile of maternal intake
[8] = 2nd vs 1st (lowest) quartile of maternal intake, calorie adjusted, n = 1,161

SMILES	Recurrent wheeze in the first 2 yrs, Multivariable Model OR (95% CI) [1, 4]	Recurrent wheeze in the first 2 yrs, Univariate Model OR (95% CI) [1, 5]	Recurrent wheeze in the first 2 yrs, Multivariable Model OR (95% CI) [1, 6]	Recurrent wheeze in the first 2 yrs, Univariate Model OR (95% CI) [1, 6]	Recurrent wheeze in the first 2 yrs, Multivariable Model OR (95% CI) [1, 7]	Recurrent wheeze in the first 2 yrs, Univariate Model OR (95% CI) [1, 7]	Any wheeze in the first 2 yrs, Univariate Model OR (95% CI) [2, 8]	Any wheeze in the first 2 yrs, Multivariable Model OR (95% CI) [2, 4]	Any wheeze in the first 2 yrs, Multivariable Model OR (95% CI) [2, 6]	Any wheeze in the first 2 yrs, Univariate Model OR (95% CI) [2, 6]	Any wheeze in the first 2 yrs, Multivariable Model OR (95% CI) [2, 7]	Any wheeze in the first 2 yrs, Univariate Model OR (95% CI) [2, 7]	Association of total maternal intake with any wheeze in univariable models [2]	Association of total maternal intake with respiratory infections in the children [3]
[Cu] [Copper, copper]	0.75 (0.43, 1.30)	0.63 (0.38, 1.03)	1.02 (0.60, 1.75)	0.67 (0.41, 1.09)	0.90 (0.51, 1.59)	0.57 (0.34, 0.95)^5	0.78 (0.55, 1.10)	0.93 (0.64, 1.35)	0.91 (0.62, 1.34)	0.71 (0.50, 1.01)	0.90 (0.61, 1.33)	0.69 (0.49, 0.99)^5	associated with lower risks	–
Nc1nc2ncc(CNc3ccc(C(=O)N[C@@H](CCC(=O)O)C(=O)O)cc3)nc2c(=O)[nH]1 [Folic acid, folic acid]	0.93 (0.55, 1.58)	0.77 (0.48, 1.24)	0.75 (0.43, 1.28)	0.58 (0.35, 0.95)^5	0.68(0.38, 1.22)	0.46 (0.27, 0.78)^5	0.94 (0.67, 1.32)	1.13 (0.78, 1.64)	0.79 (0.54, 1.16)	0.63 (0.44, 0.89)^5	0.89 (0.60, 1.31)	0.64 (0.45, 0.91)^5	associated with lower risks	–
CC(C)=CCC/C(C)=C/C=C/C(C)=C/C=C/C(C)=C/C=C/C=C(C)/C=C/C=C(C)/C=C/C=C(\C)CCC=C(C)C [Lycopene, lycopene]	1.06 (0.62, 1.83)	0.88 (0.53, 1.46)	1.40 (0.82, 2.40)	1.01 (0.62, 1.64)	0.75 (0.42, 1.33)	0.70 (0.42, 1.17)	1.27 (0.90, 1.80)	1.50 (1.02, 2.19)	1.67 (1.14, 2.45)	1.26 (0.90, 1.79)	0.96 (0.64, 1.42)	0.83 (0.58, 1.19)	–	–
O=C1O[C@H]([C@@H](O)CO)C(O)=C1O [Vitamin C, ascorbic acid]	1.05 (0.62, 1.77)	1.02 (0.63, 1.65)	1.04 (0.60, 1.78)	0.85 (0.52, 1.40)	0.75 (0.41, 1.36)	0.56 (0.32, 0.97)^5	0.82 (0.58, 1.15)	0.93 (0.65, 1.35)	0.84 (0.58, 1.22)	0.65 (0.46, 0.93)^5	0.79 (0.54, 1.15)	0.67 (0.47, 0.94)^5	associated with lower risks	not associated
CC1=CCCC(C)(C)C1/C=C/C(C)=C/C=C/C(C)=C/C=C/C=C(C)/C=C/C=C(C)/C=C/C1=C(C)CCCC1(C)C (stereo not drawn) [α Carotene, α-carotene]	1.22 (0.71, 2.09)	0.98 (0.60, 1.60)	1.01 (0.57, 1.80)	0.74 (0.43, 1.25)	1.26 (0.72, 2.21)	0.88 (0.53, 1.45)	0.77 (0.54, 1.09)	0.87 (0.60, 1.26)	1.00 (0.69, 1.45)	0.82 (0.58, 1.16)	0.92 (0.63, 1.34)	0.75 (0.53, 1.06)	–	–
CC1=C(/C=C/C(C)=C/C=C/C(C)=C/C=C/C=C(C)/C=C/C=C(C)/C=C/C2=C(C)CCCC2(C)C)C(C)(C)CCC1 [β Carotene, β-carotene]	1.24 (0.72, 2.13)	0.85 (0.52, 1.37)	1.23 (0.72, 2.13)	0.76 (0.46, 1.24)	1.01 (0.56, 1.81)	0.58 (0.34, 0.97)^5	1.01 (0.71, 1.41)	1.28 (0.88, 1.88)	1.21 (0.82, 1.77)	0.85 (0.60, 1.20)	0.98 (0.66, 1.47)	0.71 (0.50, 1.02)	associated with lower risks	–
CC1=C(/C=C/C(C)=C/C=C/C(C)=C/C=C/C=C(C)/C=C/C=C(C)/C=C/C2=C(C)C[C@@H](O)CC2(C)C)C(C)(C)CCC1 [β Cryptoxanthin]	1.33 (0.78, 2.28)	1.36 (0.82, 2.24)	0.97 (0.55, 1.72)	0.95 (0.56, 1.63)	1.28 (0.73, 2.26)	1.05 (0.62, 1.78)	0.80 (0.57, 1.13)	0.82 (0.57, 1.18)	0.81 (0.56, 1.18)	0.72 (0.51, 1.02)	0.97 (0.67, 1.41)	0.92 (0.66, 1.30)	–	–
